Measured values published in patent publication US20170296505A1, “LONG-CHAIN CARBOXYCHROMANOLS AND ANALOGS FOR USE AS ANTI-INFLAMMATORY AGENTS” (Purdue Research Foundation, priority 2008, published 2017).
Where two headings read alike, the source gives them in different places.

Tests used:
COX-2 [1] = target: T1, COX-2 (Homo sapiens, UniProt P35354); assay: COX-2 activity in intact cells; format: cell-based; parameters: A549 cells were pre-treated with 0.5-1 ng/mL of IL-1β- for 6 hours to induce COX-2 expression; endogenous in cells
T1 sequence (P35354 18-604): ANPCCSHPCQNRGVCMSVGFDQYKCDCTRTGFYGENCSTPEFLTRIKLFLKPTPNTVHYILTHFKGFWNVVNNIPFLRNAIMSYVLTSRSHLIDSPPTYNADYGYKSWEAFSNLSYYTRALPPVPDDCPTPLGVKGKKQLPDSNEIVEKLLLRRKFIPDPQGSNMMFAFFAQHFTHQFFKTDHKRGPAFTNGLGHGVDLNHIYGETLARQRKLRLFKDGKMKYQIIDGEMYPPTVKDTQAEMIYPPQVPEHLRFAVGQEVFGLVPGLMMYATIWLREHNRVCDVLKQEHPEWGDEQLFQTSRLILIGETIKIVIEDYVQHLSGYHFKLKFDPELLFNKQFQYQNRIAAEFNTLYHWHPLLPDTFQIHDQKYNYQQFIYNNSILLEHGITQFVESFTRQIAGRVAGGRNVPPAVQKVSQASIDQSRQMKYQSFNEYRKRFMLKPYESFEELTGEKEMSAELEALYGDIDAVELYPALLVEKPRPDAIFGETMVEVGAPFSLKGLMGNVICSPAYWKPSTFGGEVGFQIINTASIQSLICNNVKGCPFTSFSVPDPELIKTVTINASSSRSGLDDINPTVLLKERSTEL
Protocol: COX-2 activity in intact cells—A549 cells were pre-treated with 0.5-1 ng/mL of IL-1β- for 6 hours to induce COX-2 expression, then incubated with fresh medium containing vitamin E farms, metabolite-containing conditioned medium or control medium for 30 min. […] The enzyme reaction was initiated by addition of 5 μM AA for 5 min, and medium was collected and immediately frozen to −20 C. PGE2 generated was measured as an index of COX-2 activity using an EIA assay from Cayman Chemicals.

[2] = after γ-T supplementation; cited from earlier work
ovine COX-1 = target: T2, ovine COX-1 (Ovis aries, UniProt P05979); assay: COX-1 activity assay using purified enzyme; format: biochemical
T2 construct: purchased Cayman Chemicals (Ann Arbor, Mich.)
T2 sequence (P05979 25-600): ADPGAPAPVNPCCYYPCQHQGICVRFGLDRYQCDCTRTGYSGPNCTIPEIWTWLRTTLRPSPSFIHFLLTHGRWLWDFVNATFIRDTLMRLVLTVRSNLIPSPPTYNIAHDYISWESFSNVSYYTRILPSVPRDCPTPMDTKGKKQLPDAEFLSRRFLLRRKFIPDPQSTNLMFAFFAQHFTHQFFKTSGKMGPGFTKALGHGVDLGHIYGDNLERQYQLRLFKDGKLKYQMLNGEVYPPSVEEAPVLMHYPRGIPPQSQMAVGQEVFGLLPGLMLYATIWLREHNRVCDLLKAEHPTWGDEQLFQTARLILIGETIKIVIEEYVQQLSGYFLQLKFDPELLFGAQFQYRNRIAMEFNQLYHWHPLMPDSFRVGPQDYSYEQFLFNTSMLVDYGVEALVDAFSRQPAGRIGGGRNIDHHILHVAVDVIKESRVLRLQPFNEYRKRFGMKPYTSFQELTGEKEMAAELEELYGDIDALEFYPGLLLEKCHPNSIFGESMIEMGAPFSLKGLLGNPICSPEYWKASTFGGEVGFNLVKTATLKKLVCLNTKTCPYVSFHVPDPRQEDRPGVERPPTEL
Protocol: (§1) COX-1 and COX -2 activity assay using purified enzymes—The enzymatic reactions were performed in 0.1M Tris (pH 8.0), in the presence of 5 mM EDTA, 2 mM phenol, and 1 μM heme. […] Enzymatic reactions were initiated by addition of AA at a final concentration of 5 μM for 2 min. The reaction was stopped by addition of 0.1 M HCl. Stannous chloride in 0.1 M HCl was then added to reduce PGG2 and PGH2 to PGF2a. After addition of 0.5 vol of […] NaCl, prostaglandins formed in the reaction were extracted using 2.5 vol of ethyl acetate and the organic layer was completely dried under N2. PGF2a, and PGE2 were quantified using ELISA assays from Cayman Chemicals.

COX-2 [3] = target: T1, COX-2; assay: COX-2 activity assay using purified enzyme; format: biochemical; parameters: purchased Cayman Chemicals (Ann Arbor, Mich.); IC50 in the enzyme assay: unit not given beside the values
Protocol: as §1

5-LOX = target: T3, 5-LOX (Homo sapiens, UniProt P09917); assay: 5-LOX activity in HL-60 cells differentiated neutrophils; format: cell-based; parameters: endogenous in cells; host or cells: HL-60 cells differentiated to neutrophils
T3 sequence (P09917 1-674): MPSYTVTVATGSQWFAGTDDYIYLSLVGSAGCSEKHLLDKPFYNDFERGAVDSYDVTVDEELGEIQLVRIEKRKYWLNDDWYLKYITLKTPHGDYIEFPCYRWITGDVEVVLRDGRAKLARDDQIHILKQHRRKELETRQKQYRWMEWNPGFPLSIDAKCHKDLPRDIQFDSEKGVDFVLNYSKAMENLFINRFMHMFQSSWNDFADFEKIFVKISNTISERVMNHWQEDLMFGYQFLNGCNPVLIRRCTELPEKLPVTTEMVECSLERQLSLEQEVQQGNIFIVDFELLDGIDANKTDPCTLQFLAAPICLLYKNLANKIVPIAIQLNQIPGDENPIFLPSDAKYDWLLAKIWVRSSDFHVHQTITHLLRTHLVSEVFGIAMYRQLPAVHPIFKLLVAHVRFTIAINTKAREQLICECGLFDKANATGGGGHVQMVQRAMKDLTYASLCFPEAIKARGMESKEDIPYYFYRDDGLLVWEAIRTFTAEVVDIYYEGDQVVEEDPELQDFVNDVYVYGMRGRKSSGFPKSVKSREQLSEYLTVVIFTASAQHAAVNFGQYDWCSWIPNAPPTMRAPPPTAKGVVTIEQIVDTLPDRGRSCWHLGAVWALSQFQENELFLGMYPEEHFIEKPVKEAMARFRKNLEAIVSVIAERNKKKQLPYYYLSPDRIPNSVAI

[4] = system: human normal CCD841CoN (CCD) colon epithelial cells; assay: Normal colon epithelial cell viability (MTT); format: cell-based; conditions: vs. cancer cells
[5] = Metabolite levels after γ-T supplementation in rats; format: in vivo; conditions: preliminary data
Description: One important implication of our current findings is that different bioactivity among vitamin E forms may be rooted in their distinct metabolism. To this end, long-chain carboxychromanols may contribute to in vivo anti-inflammatory effect of γ-T (3-2). […] Himmelfard et al. reported that γ-T enriched but not a-T-enriched mixed tocopherol inhibited C-reactive protein and IL-6 in kidney-dialysis patients 36).

[6] = system: IL-1beta-stimulated PGE2 formation in A549 cells; assay: IL-1beta-stimulated PGE2 formation with or without sesamin (Table 4); format: cell-based, human; conditions: IL-1beta 2 ng/ml, 8 h; 13′-COOH 2.5 uM, sesamin 1 uM
Protocol: Briefly, A549 cells were stimulated with IL-1beta (2 ng/ml) in the presence of DMSO (ctrl, 0.1%), control with sesamin (1 uM), 13′-COOH (structure 1) at 2.5 uM, 13′-COOH with sesamin (1 uM). Basal control was cells incubated with medium without IL-1beta. Eight hours later, media were collected and PGE2 was measured by ELISA.

[7] = system: colon HCT116 cancer cells; assay: HCT116 cell growth / viability (MTT); format: cell-based, human
Protocol: FIG. 9. MTT assay data were obtained after HCT116 colon cancer cells were incubated with curcumin (Cur, 6 μM), δTE-13′-COOH (13′, 10 μM) or their combination for 72 h. *P<0.05 and ***P<0.01 indicate statistically difference between the treatments and vehicle control.
(§2) The relative cell viability as a percentage of the control was determined for control and for each concentration.
This observation supports the idea that the combination of curcumin with 13′-COOHs may offer better anticancer efficacy than either agent alone.

[8] = system: sulfation of carboxychromanols; assay: Sulfation of carboxychromanols; conditions: preliminary data
COX-2 [9] = target: T1, COX-2; parameters: A549 cells were pre-treated with 0.5-1 ng/mL of IL-1β- for 6 hours to induce COX-2 expression; endogenous in cells; conditions: previously reported; read-out: IC50 COX-2 in A549 cells; cited from earlier work
[10] = system: HCT116 colon cancer cells; assay: Apoptosis by flow cytometry; format: cell-based, human; conditions: 20 μM, 24 hours
HT29 colon cancer cells = assay: HT-29 cell viability (MTT); format: cell-based, human
Protocol: FIG. 8. […] Relative cell viability was measured by MTT assay after cells were treated with STE-13′ at indicated concentrations and times compared with DMSO controls. […] The data are mean±SD from at least three independent experiments. *p <0.05 and **p<0.01 indicate a significant difference between treated and DMSO-control cells
Besides HT29 colon cancer cells, we also observed similar anticancer effects of δTE-13-COOH on HCT116 colon cancer cells (FIG. 4C) and MCF7 breast cancer cells (FIG. 4A).

COX-2 [11] = target: T1, COX-2; assay: COX-2 inhibition with purified human enzyme (Table 3); format: biochemical; parameters: A549 cells were pre-treated with 0.5-1 ng/mL of IL-1β- for 6 hours to induce COX-2 expression; endogenous in cells; conditions: mean±SEM
Description: Free radical biology & medicine 95, 190-199. Results are mean±SEM based on four or more independent experiments.

[12] = system: human breast MCF-7 cancer cells; assay: MCF-7 cell growth (MTT); format: cell-based; conditions: 5, 10, 20 μM, over 60 hours
Protocol: as §2

DSS-induced colitis = DSS-induced colitis model; format: in vivo, mice
[13] = system: AOM/DSS-induced colon inflammation and tumorigenesis; assay: AOM/DSS-induced colon cancer model; format: in vivo, Balb/c mice; conditions: 0.025% diet
Protocol: AOM is a carcinogen and DSS administered in drinking water causes colon inflammation that promotes colon tumorigenesis. Therefore, the AOM-DSS model represents inflammation (colitis)-promoted colon cancer. In FIG. 5A, the experimental design is shown. At day 0, AOM is administered to the Balb/c mice.

[14] = intact cells, COX-2 pre-induced by IL-1β, 5 μM AA, read-out: IC50 COX-2 in A549 cells
[15] = at maximum concentration of 20 μM
[16] = purified enzyme, Not inhibit: 9′ at 20 μM, acetaminophen at 250 μM
[17] = Table 2, read-out: IC50 COX-2 activity in intact cells
[18] = purified enzyme, Not inhibit: 9′ at 20 μM, acetaminophen at 250 μM, listed as F-CEHC

SMILES: Cc1cc(O)cc2c1OC(C)(CCCC(C)CCCC(C)C(=O)O)CC2 (centres unmarked) [9′]
- IC50 (COX-2 [1]; [14]): 7 ± 2 µM
- detection in the plasma and liver [2]: not
- inhibition of COX-1 (ovine COX-1; [15]): did not inhibit
- IC50 COX-1 (ovine COX-1; [16]): Not inhibit*
- inhibition of COX-2 (COX-2 [3]; [15]): did not inhibit
- IC50 COX-2 (COX-2 [3]; [16]): Not inhibit*
- estimated IC50 of 5-LOX activity (5-LOX): low microM

SMILES: Cc1cc(O)cc2c1OC(C)(CCCC(C)CCCC(C)CCCC(C)C(=O)O)CC2 (centres unmarked) [13′, 13-(6-hydroxy-2,8-dimethylchroman-2-yl)-2,6,10-trimethyltridecanoic acid]
- IC50 (COX-2 [1]; [17]): 4 ± 2 µM
- IC50 (COX-2 [1]; [14]): 6 ± 2 µM
- detection in the plasma and liver [2]: significant amounts
- IC50 (ovine COX-1; [16]): 5 ± 2 µM
- sensitivity of normal cells (anti-proliferation, 24-h incubation) [4]: much less sensitive
- amount found in feces [5]: > 100 nmol/g
- PGE2 [6]: 3.21 ± 0.9 ng/mL
- IC50 (COX-2 [3]; [16]): 4 ± 2 µM

SMILES: COc1cc(/C=C/C(=O)CC(=O)/C=C/c2ccc(O)c(OC)c2)ccc1O [curcumin, reference compound]
- cytotoxicity at 6 µM ([7]; Homo sapiens, HCT-116, curcumin 6 μM, δTE-13′-COOH 10 μM or their combination, 72 h, read-out: reduction of colon cancer cell viability): 35%
- sulfation of carboxychromanols [8]: inhibits sulfation

SMILES: Cc1c(O)cc2c(c1C)OC(C)(CCC(=O)O)CC2 (centres unmarked) [γ-CEHC, reference compound]
- IC50 (ovine COX-1; [16]): 300 ± 50 µM
- IC50 (ovine COX-1; [18]): 300 to 500 µM
- IC50 (COX-2 [9]): 30 to 70 µM
- IC50 in the enzyme assay (COX-2 [3]; assays using purified COX-1 or COX-2): > 3000/1
- IC50 (COX-2 [3]; [16]): 450 ± 50 µM
- IC50 (COX-2 [3]; [18]): 300 to 500 µM

SMILES: C/C(=C\CC/C(C)=C/CCC1(C)CCc2cc(O)cc(C)c2O1)CC/C=C(\C)C(=O)O (centres unmarked) [δTE-13′, (2E,6E,10E)-13-(6-hydroxy-2,8-dimethylchroman-2-yl)-2,6,10-trimethyltrideca-2,6,10-trienoic acid]
- cells in early stage apoptosis [10]: 7.92%
- cells in late stage apoptosis [10]: 22.9%
- cancer cell growth (MTT) ([7]; 5, 10, 20 μM, over 60 hours): dose-dependently inhibits
- reduction of colon cancer cell viability ([7]; curcumin 6 μM, δTE-13′-COOH 10 μM or their combination, 72 h): 11-12%
- cancer cell growth (MTT) (HT29 colon cancer cells): dose- and time-dependent manner
- IC50 (COX-2 [1]; [17]): 4 ± 1 µM
- IC50 (COX-2 [11]): 9.8 ± 2 µM
- cancer cell growth (MTT) [12]: dose-dependently inhibits
- colitis score (DSS-induced colitis; compared to the DSS-treated control): significantly decreased colitis score
- DSS-induced diarrhea and fecal bleeding (DSS-induced colitis; in diet): significantly mitigated
- body weight [13]: no effect
- food intake [13]: no effect
- decrease of total tumor multiplicity ([13]; P<0.01): 34%
- decrease of large polyps ([13]; P<0.05): 58%
- DSS-induced inflammation (fecal bleeding) ([13]; second cycle of DSS): significantly attenuated
